Results: DBAASP
In brackets after ≈: the same amount, converted by molar mass. Several values for one entry are separate records, joined by “and”; a condition that tells them apart may be missing. Equal values may be shown once. Blank lines part the entries; values can stand above or below the compound they belong to.

How the values were obtained:
Assay in all cases: ≥ marks a high value that may be exact or a test limit, other limits are often not marked, values filed in µg/mL are converted to µM
[1] = tested on: Yersinia pseudotuberculosis YPIII
[2] = tested on: Escherichia coli ATCC 25922
[3] = tested on: Staphylococcus aureus Cowan 1
[4] = tested on: Staphylococcus capitis 1
[5] = tested on: Candida albicans ATCC 10231
[6] = tested on: Bacillus megaterium Bm11
[7] = tested on: Escherichia coli DH5alpha
[8] = tested on: Escherichia coli ATCC 10536
[9] = tested on: Staphylococcus aureus ATCC 9144
[10] = tested on: Cronobacter sakazakii ATCC BAA-894
[11] = tested on: Staphylococcus aureus RN4220
[12] = tested on: Staphylococcus aureus Newman
[13] = tested on: Staphylococcus aureus SA113
[14] = tested on: Staphylococcus aureus NCTC 8325-4
[15] = tested on: Cronobacter sakazakii DSM 4485
[16] = tested on: Cronobacter muytjensii ATCC 51329
[17] = tested on: Klebsiella pneumoniae NCIMB 13218
[18] = tested on: Pseudomonas fluorescens NCIMB 9046
[19] = tested on: Cronobacter sakazakii DPC 6440
[20] = tested on: Escherichia coli NCIMB 11843
[21] = tested on: Salmonella enterica subsp. enterica serovar Typhimurium LT2
[22] = tested on: Staphylococcus aureus RF122
[23] = tested on: Pseudomonas syringae pv. syringae DSM 10604
[24] = tested on: Pseudomonas syringae pv. tomato DC3000
[25] = tested on: Clavibacter michiganensis subsp. michiganensis DSM 46294
[26] = tested on: Pectobacterium carotovorum subsp. carotovorum DSM 30168
[27] = tested on: Xanthomonas vesicatoria DSM 50861
[28] = tested on: Staphylococcus aureus 90857
[29] = tested on: Pseudomonas corrugata DSM 7228
[30] = tested on: Pseudomonas aeruginosa 4677
[31] = tested on: Klebsiella pneumoniae 913
[32] = tested on: Acinetobacter baumannii
[33] = tested on: Enterobacter cloacae 2524
[34] = tested on: Enterobacter cloacae 6780
[35] = tested on: Escherichia coli 170
[36] = tested on: Escherichia coli ATCC 11775
[37] = tested on: Staphylococcus aureus ATCC 12600
[38] = tested on: Botrytis cinerea
[39] = tested on: Staphylococcus aureus ATCC 25923
[40] = tested on: Staphylococcus aureus
[41] = tested on: Enterococcus faecalis ATCC 19433
[42] = tested on: Mycobacterium tuberculosis H37Rv
[43] = tested on: Pseudomonas aeruginosa

- MIC [1]: ≥ 40 µM
- MIC [2]: > 40 µM
- MIC [3]: ≥ 40 µM
- MIC [4]: ≥ 40 µM
- MIC [5]: 20 µM (≈ 27.1 µg/mL)
- MIC [6]: 20 µM (≈ 27.1 µg/mL)
SMILES: CC[C@H](C)[C@H](NC(=O)[C@H](CC(C)C)NC(=O)[C@@H]1CCCN1C(=O)[C@H](CC(C)C)NC(=O)[C@@H](N)Cc1ccccc1)C(=O)NCC(=O)N[C@@H](CCCN=C(N)N)C(=O)N[C@H](C(=O)N[C@@H](CC(C)C)C(=O)N[C@@H](CO)C(=O)NCC(=O)N[C@@H](C)C(=O)N[C@@H](CC(C)C)C(N)=O)C(C)C [FLPLIGRVLSGAL]

- MIC [10]: ≥ 2500 µM
- MIC [11]: ≥ 2500 µM
- MIC [12]: ≥ 2500 µM
- MIC [13]: ≥ 2500 µM
- MIC [14]: ≥ 2500 µM
- MIC [15]: ≥ 2500 µM
- MIC [16]: ≥ 2500 µM
- MIC [17]: ≥ 2500 µM
- MIC [18]: ≥ 2500 µM
- MIC [19]: ≥ 2500 µM
- MIC [20]: ≥ 2500 µM
- MIC [21]: ≥ 2500 µM
- MIC [22]: ≥ 2500 µM
SMILES: CC[C@H](C)[C@H](N)C(=O)N[C@@H](CCCCN)C(=O)N[C@@H](Cc1cnc[nH]1)C(=O)N[C@@H](CCC(N)=O)C(=O)NCC(=O)N[C@@H](CC(C)C)C(=O)N1CCC[C@H]1C(=O)N[C@@H](CCC(N)=O)C(=O)N[C@@H](CCC(=O)O)C(=O)N[C@@H](CCC(=O)O)C(=O)O [IKHQGLPQEE]

- MIC [5]: > 200 µM
- MIC [36]: ≥ 200 µM
- MIC [37]: ≥ 200 µM
- MIC [38]: ≥ 200 µM
SMILES: CC(C)C[C@H](NC(=O)[C@H](CC(C)C)NC(=O)[C@H](CO)NC(=O)[C@H](CCC(N)=O)NC(=O)[C@@H](NC(=O)[C@@H](NC(=O)[C@H](CCCCN)NC(=O)[C@@H]1CCCN1C(=O)[C@H](CC(=O)O)NC(=O)[C@@H](N)CC(C)C)C(C)C)C(C)C)C(N)=O [LDPKVVQSLL]

The next lines start with the compound.

SMILES: CC[C@H](C)[C@H](NC(=O)[C@@H](NC(=O)[C@@H]1CCCN1C(=O)[C@H](CO)NC(=O)[C@H](C)NC(=O)[C@H](CCCCN)NC(=O)[C@H](CCCCN)NC(=O)[C@H](Cc1ccccc1)NC(=O)[C@H](C)NC(=O)[C@H](CCCCN)NC(=O)[C@H](CCCCN)NC(=O)[C@H](Cc1ccccc1)NC(=O)[C@H](CCCCN)NC(=O)[C@H](CCCCN)NC(=O)[C@H](CCCN=C(N)N)NC(=O)[C@H](Cc1ccccc1)NC(=O)[C@H](CCCN=C(N)N)NC(=O)[C@H](CCCCN)NC(=O)[C@H](Cc1ccccc1)NC(=O)[C@H](CCCN=C(N)N)NC(=O)CN)C(C)C)C(=O)N1CCC[C@H]1C(=O)N[C@@H](CC(C)C)C(=O)N[C@@H](CC(C)C)C(=O)N[C@@H](Cc1cnc[nH]1)C(=O)N[C@@H](CC(C)C)C(N)=O [GRFKRFRKKFKKAFKKASPVIPLLHL]
- MIC [7]: 2.9 µM (≈ 9.11 µg/mL)
- MIC [8]: 2.7 µM and 7.2 µM
- MIC [9]: 2.7 µM (≈ 8.48 µg/mL)

SMILES: CC[C@H](C)[C@H](NC(=O)[C@H](CC(C)C)NC(=O)[C@H](CCCCN)NC(=O)[C@@H](NC(=O)[C@@H](NC(=O)[C@H](CC(C)C)NC(=O)[C@H](CCCCN)NC(=O)[C@H](CC(C)C)NC(=O)[C@@H](NC(=O)[C@H](CCCCN)NC(=O)[C@@H](NC(=O)[C@H](CC(C)C)NC(=O)[C@H](CCCCN)NC(=O)[C@H](CCCN=C(N)N)NC(=O)[C@H](CCCN=C(N)N)NC(=O)[C@@H](N)CCCCN)[C@@H](C)CC)[C@@H](C)CC)[C@@H](C)CC)[C@@H](C)CC)C(=O)N[C@@H](CCCN=C(N)N)C(=O)N[C@@H](CCCCN)C(=O)N[C@@H](CCCCN)C(=O)N[C@@H](CCCN=C(N)N)C(N)=O [KRRKLIKILKLIIKLIRKKR]
- MIC [23]: 0.391 µM (≈ 1 µg/mL)
- MIC [24]: 0.977 µM (≈ 2.5 µg/mL)
- MIC [25]: 0.0391 µM (≈ 0.1 µg/mL)
- MIC [26]: 3.91 µM (≈ 10 µg/mL)
- MIC [27]: 0.0391 µM (≈ 0.1 µg/mL)
- MIC [28]: 2 µM (≈ 5.11 µg/mL)
- MIC [29]: 0.977 µM (≈ 2.5 µg/mL)

SMILES: CC(C)C[C@H](NC(=O)[C@H](CCCCN)NC(=O)[C@H](CCC(N)=O)NC(=O)[C@@H](NC(=O)[C@@H](NC(=O)[C@H](CC(N)=O)NC(=O)[C@H](C)NC(=O)[C@@H](NC(=O)[C@@H](N)CCCCN)C(C)C)[C@@H](C)O)C(C)C)C(=O)N[C@@H](CCCCN)C(=O)N[C@@H](CCCN=C(N)N)C(=O)N[C@@H](CCCCN)C(=O)N[C@@H](C)C(=O)N[C@@H](CCCCN)C(=O)N[C@@H](CC(N)=O)C(=O)N[C@@H](C)C(=O)N[C@H](C(=O)N[C@@H](C)C(=O)O)C(C)C [KVANTVQKLKRKAKNAVA]
- MIC [2]: > 50 µM
- MIC [30]: ≥ 50 µM
- MIC [31]: ≥ 50 µM
- MIC [32]: ≥ 50 µM
- MIC [33]: 12.5 µM (≈ 24.6 µg/mL)
- MIC [34]: ≥ 50 µM
- MIC [35]: ≥ 50 µM

SMILES: CC[C@H](C)[C@H](NC(=O)[C@H](CC(C)C)NC(=O)[C@H](CCCN=C(N)N)NC(=O)[C@H](CCCCN)NC(=O)[C@@H](NC(=O)[C@@H](NC(=O)[C@H](CCCCN)NC(=O)[C@@H](NC(=O)[C@H](CCCCN)NC(=O)[C@H](CCCCN)NC(=O)[C@H](CCCCN)NC(=O)[C@@H](N)CCCN=C(N)N)[C@@H](C)CC)[C@@H](C)CC)[C@@H](C)CC)C(N)=O [RKKKIKIIKRLI]
- MIC [23]: 0.163 µM (≈ 0.25 µg/mL)
- MIC [24]: 6.51 µM (≈ 9.99 µg/mL)
- MIC [25]: 3.25 µM (≈ 5 µg/mL)
- MIC [26]: 6.51 µM (≈ 9.99 µg/mL)
- MIC [27]: 1.63 µM (≈ 2.5 µg/mL)
- MIC [28]: ≥ 62.5 µM
- MIC [29]: 1.63 µM (≈ 2.5 µg/mL)

SMILES: CC[C@H](C)[C@H](NC(=O)[C@H](CCCN=C(N)N)NC(=O)[C@H](Cc1c[nH]c2ccccc12)NC(=O)[C@@H](NC(=O)[C@@H](NC(=O)[C@H](CC(C)C)NC(=O)[C@H](Cc1c[nH]c2ccccc12)NC(=O)[C@H](CCCN=C(N)N)NC(=O)[C@H](CCC(N)=O)NC(=O)[C@@H](N)C(C)C)[C@@H](C)CC)C(C)C)C(=O)N[C@@H](CCCN=C(N)N)C(=O)N[C@@H](CCCCN)C(N)=O [VQRWLIVWRIRK]
- MIC [39]: 77.4 µM (≈ 128 µg/mL)
- MIC [40]: 3.02 µM (≈ 5 µg/mL)
- MIC [41]: ≥ 38.7 µM
- MIC [42]: 17.7 µM (≈ 29.3 µg/mL)
- MIC [43]: 11.5 µM (≈ 19 µg/mL)
